Measured values published in patent US10344019B2 (priority 2010, dated 2019).
Read-outs that look alike come from different tables or passages of the source.

Columns and labels:
Test in all cases: microbe, parasite or virus in culture
Type in all cases: cell-based
[1] = test system: HCV 2a JFH-1 Rluc cells (dicistronic genotype 2a JFH-1 replicon, RLuc reporter); details: Hepatitis C virus, genotype 2a JFH-1 replicon, read-out: 2a JFH
Procedure: (§1) Evaluation of cell-based anti-HCV activity: Antiviral potency (EC50) was determined using a Renilla luciferase (RLuc)-based HCV replicon reporter assay. To perform the assay for genotype 1 and 2a JFH-1, HCV 1b RLuc cells (harboring a dicistronic genotype 1b Con1 replicon that encodes a RLuc reporter), or HCV 1a RLuc cells (harboring a dicistronic genotype 1a H77 replicon that encodes a RLuc reporter), or HCV 2a JFH-1 Rluc cells (harboring a dicistronic genotype 2a JFH-1 replicon that encodes a RLuc reporter) were dispensed into 384-well plates. To perform the assay for genotype 2a (with M31 present) or 2b, HCV 2a Rluc or 2b Rluc cells (both with M31 present) harboring a dicistronic NS5A chimeric genotype 2a JFH-1 replicon that encodes a RLuc reporter and either genotype 2a J6 strain NS5A gene or genotype 2b MD2b-1 NS5A gene (based on Los Alamos HCV database isolates, both with M31 present) respectively, were dispensed into 384-well plates. To perform the assay for genotype 3 and 4, HCV 3a RLuc or 4a Rluc cells harboring a dicistronic NS5A chimeric genotype 1b Con1 replicon that encodes a RLuc reporter and either a consensus genotype 3a NS5A gene or genotype 4a NS5A gene (based on Los Alamos HCV database isolates) respectively, were dispensed into 384-well plates. Compounds were re-suspended in DMSO at a concentration of 10 mM and serially diluted in DMSO either manually or using an automated pipeting instrument. Serially diluted compounds were mixed with cell culture media and added to the seeded cells. […] 72 hours later, cells were lysed and Renilla luciferase activity quantified as recommended by the manufacturer (Promega-Madison, Wis.). Non-linear regression was performed to calculate EC50 values.

[2] = test system: HCV 1b RLuc cells (dicistronic genotype 1b Con1 replicon, RLuc reporter); details: Hepatitis C virus, read-out: 1b (nM)
Procedure: as §1

[3] = test system: HCV 3a RLuc cells (NS5A chimeric genotype 1b Con1 replicon with consensus genotype 3a NS5A gene); details: Hepatitis C virus
Procedure: as §1

[4] = test system: HCV 1a RLuc cells (dicistronic genotype 1a H77 replicon, RLuc reporter); details: Hepatitis C virus, read-out: 1a
Procedure: as §1

[5] = test system: HCV 4a Rluc cells (NS5A chimeric genotype 1b Con1 replicon with genotype 4a NS5A gene); details: Hepatitis C virus, read-out: 4a
Procedure: as §1

[6] = read-out: 3a, Table 1, genotype 3a NS5A chimeric replicon
[7] = 72 h, Table 1, genotype 1a H77 replicon, 72 hours
[8] = read-out: 3a, genotype 3a NS5A chimeric 1b Con1 replicon
[9] = genotype 1a H77 replicon, RLuc reporter
[10] = read-out: 3a, genotype 3a replicon
[11] = read-out: 3a, Table 2, genotype 3a NS5A chimeric replicon
[12] = 72 h, Table 2, genotype 1a H77 replicon, 72 hours

SMILES | EC50 [5] [nM] | EC50 ([1]; RLuc reporter) [nM] | EC50 [2] [nM] | EC50 [3, 8] [nM] | EC50 [4, 9] [nM] | also measured
COC(=O)N[C@H](C(=O)N1CCC[C@H]1c1ncc(-c2ccc3c(c2)COc2c-3ccc3cc(-c4cnc([C@@H]5CCCN5C(=O)[C@@H](NC(=O)OC)[C@@H](C)OC)[nH]4)ccc23)[nH]1)C1CCOCC1 [Example 15] | 0.001 to 0.99 |  |  |  |  | EC50 ([1]; 72 h, Table 1, 72 hours): 0.001 to 0.999 nM; EC50 ([2]; 72 h): 0.026 nM; EC50 [3, 6]: 0.001 to 0.99 nM; EC50 [4, 7]: 0.001 to 0.999 nM
COC(=O)N[C@H](C(=O)N1CCC[C@H]1c1ncc(-c2ccc3cc(-c4ccc(-c5cnc([C@@H]6CC(F)(F)CN6C(=O)[C@H](NC(=O)OC)c6ccccc6)[nH]5)cc4)ccc3c2)[nH]1)C1CCOCC1 [Example 225] | 0.001 to 0.99 | 0.001 to 0.999 | 0.009 | 0.001 to 0.99 | 0.001 to 0.999 | 
COC(=O)NC(C(=O)N1CCC[C@H]1c1ncc(-c2ccc3c(c2)C(F)(F)c2cc(-c4ccc(-c5cnc([C@@H]6CCCN6C(=O)[C@H](NC(=O)OC)c6ccccc6)[nH]5)cc4)ccc2-3)[nH]1)C1CCOCC1 (stereo partly shown) [Example 199] | 0.001 to 0.99 | 1 to 44 | 0.01 | 1 to 4.99 | 1 to 44 | 
COC(=O)N[C@H](C(=O)N1CCS[C@@H]1c1nc2ccc3cc(-c4ccc(-c5cnc([C@@H]6CCCN6C(=O)[C@@H](NC(=O)OC)C6CCOCC6)[nH]5)cc4)ccc3c2[nH]1)C(C)C [Example 332] | 0.001 to 0.99 |  | 1.25 |  |  | EC50 [1]: 0.001 to 0.999 nM; EC50 [3, 10]: 1 to 4.99 nM; EC50 ([4]; genotype 1a replicon): 1 to 44 nM
COC(=O)N[C@H](C(=O)N1CCC[C@H]1c1ncc(-c2ccc3c4ccc(-c5cnc([C@@H]6CCCN6C(=O)[C@@H](NC(=O)OC)C6CCOCC6)[nH]5)cc4c4ccccc4c3c2)[nH]1)C(C)C [Example 293] | 0.001 to 0.99 |  | 0.042 |  |  | EC50 [1]: 0.001 to 0.999 nM; EC50 [3, 10]: 0.001 to 0.99 nM; EC50 ([4]; genotype 1a replicon): 0.001 to 0.999 nM
COC(=O)N[C@H](C(=O)N1CCC[C@H]1c1ncc(-c2ccc(-c3ccc4c(ccc5nc([C@@H]6CC7(CN6C(=O)[C@@H](NC(=O)OC)[C@@H](C)OC)OCCO7)[nH]c54)c3)cc2)[nH]1)C(C)C [Example 90] | 0.001 to 0.99 |  |  |  |  | EC50 ([1]; 72 h, Table 2, 72 hours): 0.001 to 0.999 nM; EC50 ([2]; 72 h): 0.044 nM; EC50 [3, 11]: 1 to 4.99 nM; EC50 [4, 12]: 0.001 to 0.999 nM
COC(=O)N[C@H](C(=O)N1CCC[C@H]1c1nc(Cl)c(-c2ccc(-c3ccc(-c4[nH]c([C@@H]5CCCN5C(=O)[C@@H](NC(=O)OC)C5CCOCC5)nc4Cl)cc3)cc2)[nH]1)C(C)C [Example 360] | 0.001 to 0.99 |  | 0.053 |  |  | EC50 [1]: 0.001 to 0.999 nM; EC50 [3, 10]: 0.001 to 0.99 nM; EC50 ([4]; genotype 1a replicon): 0.001 to 0.999 nM
COC(=O)N[C@H](C(=O)N[C@H](c1nc(-c2ccc3c(c2)C(F)(F)c2cc(-c4ccc5nc([C@@H]6CCCN6C(=O)[C@H](NC(=O)OC)c6ccccc6)[nH]c5c4)ccc2-3)c[nH]1)C(C)C)C1CCOCC1 [Example 227] | 0.001 to 0.99 | 0.001 to 0.999 | 0.025 | 0.001 to 0.99 | 1 to 44 | 
COC(=O)N[C@H](C(=O)N1[C@@H]2CC[C@@H](C2)[C@H]1c1nc2ccc3cc(-c4ccc(-c5cnc([C@@H]6C[C@H]7C[C@H]7N6C(=O)[C@H](NC(=O)OC)c6ccccc6)[nH]5)cc4)ccc3c2[nH]1)C(C)C [Example 368] | 0.001 to 0.99 |  | 0.012 |  |  | EC50 [1]: 0.001 to 0.999 nM; EC50 [3, 10]: 0.001 to 0.99 nM; EC50 ([4]; genotype 1a replicon): 0.001 to 0.999 nM
COC(=O)N[C@H](C(=O)N1CCC[C@H]1c1ncc(-c2cccc(-c3ccc4cc(-c5cnc([C@@H]6CCCN6C(=O)[C@@H](NC(=O)OC)C(C)C)[nH]5)ccc4c3)c2)[nH]1)C(C)C [Example 243] | 0.001 to 0.99 | > 44 | 4.59 | > 5 | > 44 | 
COC(=O)N[C@H](C(=O)N1CCC[C@H]1c1ncc(-c2ccc3c(c2)CCc2cc(-c4ccc5nc([C@@H]6[C@H]7CC[C@H](C7)N6C(=O)[C@H](NC(=O)OC)c6ccccc6)[nH]c5c4)ccc2-3)[nH]1)C1CCOCC1 [Example 78] | 0.001 to 0.99 |  |  |  |  | EC50 ([1]; 72 h, Table 2, 72 hours): 0.001 to 0.999 nM; EC50 ([2]; 72 h): 0.013 nM; EC50 [3, 11]: 0.001 to 0.99 nM; EC50 [4, 12]: 0.001 to 0.999 nM
COC(=O)N[C@H](C(=O)N1CCC[C@H]1c1ncc(-c2ccc3cc(-c4ccc(-c5cnc([C@@H]6CCCN6C(=O)OC(C)(C)C)[nH]5)cc4)ccc3c2)[nH]1)C(C)C [Example 247] | 0.001 to 0.99 | > 44 | 0.758 | > 5 | 1 to 44 | 
COC(=O)NC(C(=O)N1CCC[C@H]1c1ncc(-c2cc3c4c(c2)CCc2cc(-c5cnc([C@@H]6CCCN6C(=O)[C@@H](NC(=O)OC)[C@@H](C)OC)[nH]5)cc(c2-4)CC3)[nH]1)[C@@H](C)OC (stereo partly shown) [Example 21] | 0.001 to 0.99 |  |  |  |  | EC50 ([1]; 72 h, Table 1, 72 hours): 0.001 to 0.999 nM; EC50 ([2]; 72 h): 0.06 nM; EC50 [3, 6]: 0.001 to 0.99 nM; EC50 [4, 7]: 0.001 to 0.999 nM
COC(=O)N[C@H](C(=O)N1CCC[C@H]1c1nc(-c2ccc3cc(-c4ccc5c(ccc6nc([C@@H]7CCCN7C(=O)[C@H](NC(=O)OC)c7ccccc7)[nH]c65)c4)sc3c2)c[nH]1)[C@H](C)OC [Example 257] | 0.001 to 0.99 | 0.001 to 0.999 | 0.013 | 0.001 to 0.99 | 0.001 to 0.999 | 
COC(=O)N[C@H](C(=O)N1CCC[C@H]1c1ncc(-c2ccc3c(c2)OCc2cc(-c4ccc5nc([C@@H]6[C@H]7CC[C@H](C7)N6C(=O)[C@@H](c6ccccc6)N(N)C(=O)OC)[nH]c5c4)ccc2-3)[nH]1)C(C)C [Example 74] | 0.001 to 0.99 |  |  |  |  | EC50 ([1]; 72 h, Table 2, 72 hours): 0.001 to 0.999 nM; EC50 ([2]; 72 h): 0.006 nM; EC50 [3, 11]: 0.001 to 0.99 nM; EC50 [4, 12]: 0.001 to 0.999 nM
COC(=O)N[C@H](C(=O)N1[C@@H]2CC[C@@H](C2)[C@H]1c1nc2ccc3cc(-c4ccc5c(ccc6nc([C@@H]7C[C@H]8C[C@H]8N7C(=O)[C@H](NC(=O)OC)c7ccccc7)[nH]c65)c4)ccc3c2[nH]1)C(C)C [Example 344] | 0.001 to 0.99 |  | 0.01 |  |  | EC50 [1]: 0.001 to 0.999 nM; EC50 [3, 10]: 0.001 to 0.99 nM; EC50 ([4]; genotype 1a replicon): 0.001 to 0.999 nM
COC(=O)N[C@@H](C)C(=O)N1CCC[C@H]1c1nc2c([nH]1)-c1ccc(-c3ccc4cc(-c5cnc([C@@H]6CCCN6C(=O)[C@H](NC(=O)OC)c6ccccc6)[nH]5)ccc4c3)cc1CC2 [Example 272] | 1 to 4.99 | > 44 |  | > 5 | > 44 | 
COC(=O)N[C@H](C(=O)N1CCC[C@H]1c1ncc(-c2ccc3cc(-c4ccc(-c5cnc([C@@H]6CCCN6C(=O)[C@H](NC(=O)CC6CCOCC6)c6ccccc6)[nH]5)cc4)ccc3c2)[nH]1)C(C)C [Example 212] |  | 0.001 to 0.999 | 0.018 | 0.001 to 0.99 | 0.001 to 0.999 | 
COC(=O)N[C@H](C(=O)N1CCC[C@H]1c1ncc(-c2ccc3cc(-c4ccc(-c5cnc([C@@H]6C[C@@H](C)CN6C(=O)[C@H](NC(=O)OC)c6ccccc6)[nH]5)cc4)ccc3c2)[nH]1)C1CCOCC1 [Example 188] |  | 0.001 to 0.999 | 0.012 | 0.001 to 0.99 | 0.001 to 0.999 | 
COC(=O)N[C@H](C(=O)N1C[C@H](C)C[C@H]1c1ncc(-c2ccc3cc(-c4ccc(-c5cnc([C@@H]6CCCN6C(=O)[C@H](NC(=O)OC)c6ccccc6)[nH]5)cc4)ccc3c2)[nH]1)C(C)C [Example 132] |  | 0.001 to 0.999 | 0.003 | 0.001 to 0.99 | 0.001 to 0.999 | 
COC(=O)NC(C(=O)N1CCC[C@H]1c1ncc(-c2ccc(-c3ccc4cc(-c5cnc([C@@H]6CCCN6C(=O)[C@@H](NC(=O)OC)C(C)C)[nH]5)ccc4c3)cc2)[nH]1)c1ccc(Cl)cc1 (stereo partly shown) [Example 107] |  | 1 to 44 | 0.024 | 1 to 4.99 | 1 to 44 | 
